The target in one experiment is T1, gamma-secretase (Homo sapiens, UniProt P49768).
T1 construct: partially purified extract of IMR-32 cell membranes as the gamma-secretase enzyme preparation; endogenous in cells; host or cells: IMR-32 cell membranes (partially purified extract)
Put plainly: Gamma-secretase APP enzyme assay. The class given is biochemical. As to conditions: cleavage of MBP-C125 Swe substrate at the Aβ40 site; partially purified extract of IMR-32 cell membranes; ELISA. The source says:
The gamma-secretase APP enzyme assay was designed to measure the specific proteolytic cleavage of an APP substrate (MBP-C125 Swe fusion protein) at the Aβ40 site. The assay used a partially purified extract of IMR-32 cell membranes as the gamma-secretase enzyme preparation and a recombinant fusion protein containing the C-terminal 125 amino acids of the Swedish variant of the APP (MBP-C125swe) as the substrate. This assay involved two steps beginning with the enzymatic reaction generating a cleavage product that was captured with an immobilized antibody specific for the neo-epitope Aβ40 site. The captured cleavage product was then detected in a sandwich ELISA assay with a biotinylated reporter antibody that is specific to Aβ (17-28). Streptavidin-linked alkaline phosphatase was then added that would generate a fluorescent signal proportional to the amount of cleavage product. This assay was used to discover small molecule inhibitors of gamma-secretase.
Briefly, a 149 mg/ml solution of BIGCHAP detergent was made with water at 42° C. and then rotated for 30 minutes at the same temperatures This warmed solution of BigCHAPS (N,N-Bis(3-D-gluconamidopropyl)cholamide) detergent was used to dissolve Brain Extract Type-V (lipid containing a minimum of 40% phosphatidylethanolamine) from Signa (St. Louis, Mo.) to a concentration of 8 mg/ml. This solution containing BigCHAPS and lipid at 8 mg/ml is then diluted to 0.53 mg/ml lipid with a pre-warmed solution of Hepes and sodium chloride. This final solution containing Hepes buffer, sodium chloride, BigCHAPS detergent and lipid is used to create working solutions of both gamma-secretase (25 Units) and the MBP-C125 substrate (0.05 mg/ml).
Gamma-secretase was then added to a 96-well micro-titre plate and then incubated with various concentrations of inhibitor for 30 minutes at 37° C. MBPC125 substrate was then added to initiate the reaction that would run for two hours at 37° C. The reaction was quenched with the addition of SDS to a final concentration of 0.1% and then 100 μl of the reaction mixture was transferred to a capture ELISA plate and incubated overnight at 4° C. Detection of the cleavage product was performed using a standard sandwich ELISA assay and quantified using a six point standard curve.
Consider `CC1c2c[nH]nc2-c2ccncc2N1S(=O)(=O)c1ccc(Cl)cc1` (centres unmarked) [5-(4-chlorophenylsulfonyl)-4-methyl-4,5-dihydro-2H-pyrazolo[4,3-c][1,7]naphthyridine], for which the half-maximal inhibitory concentration (IC50) is 0.1 to 100 nM.
For the molecule `O=S(=O)(c1ccc(Cl)cc1)N1Cc2c[nH]nc2-c2ccc(F)cc21` [5-[(4-chlorophenyl)sulfonyl]-7-fluoro-4,5-dihydro-2H-pyrazolo[4,3-c]quinoline], the IC50 was 0.1 to 100 nM.
Turning to `CC1c2c[nH]nc2-c2cc(F)ccc2N1S(=O)(=O)c1cn(C)cn1` (centres unmarked) [8-fluoro-4-methyl-5-(1-methyl-1H-imidazol-4-ylsulfonyl)-4,5-dihydro-1H-pyrazolo[4,3-c]quinoline], the IC50 fell in the range of 1000 to 10000 nM.
On to `O=S(=O)(c1ccc(C(F)(F)F)cc1)N1c2ccccc2-c2[nH]ncc2C12CC2` [5′-(4-(trifluoromethyl)phenylsulfonyl)-1′,5′-dihydrospiro[cyclopropane-1,4′-pyrazolo[4,3-c]quinoline]], for which the half-maximal inhibitory concentration (IC50) lay within 0.1 to 100 nM.
Molecule `Cc1n[nH]c2c1CN(S(=O)(=O)c1ccc(Cl)cc1)c1ccccc1-2` [5-[(4-chlorophenyl)sulfonyl]-3-methyl-4,5-dihydro-1H-pyrazolo[4,3-c]quinoline] returned a half-maximal inhibitory concentration (IC50) of 1000 to 10000 nM.
The same measure, in the same setting: with `CC1c2c[nH]nc2-c2cccnc2N1S(=O)(=O)c1ccc(Cl)cc1` (centres unmarked) [5-(4-chlorophenylsulfonyl)-4-methyl-4,5-dihydro-2H-pyrazolo[4,3-c][1,8]naphthyridine] the figure was 0.1 to 100 nM; with `O=S(=O)(c1ccc(C(F)(F)F)cc1)N1c2cc(F)c(F)cc2-c2[nH]ncc2C1C1CC1` (racemic) [4-cyclopropyl-7,8-difluoro-5-(4-(trifluoromethyl)phenylsulfonyl)-4,5-dihydro-1H-pyrazolo[4,3-c]quinoline], 0.1 to 100 nM.
`COc1ccc2c(c1)N(S(=O)(=O)c1ccc(Cl)cc1)C(C)c1c[nH]nc1-2` (centres unmarked) [5-[(4-chlorophenyl)sulfonyl]-7-methoxy-4-methyl-4,5-dihydro-1H-pyrazolo[4,3-c]quinoline] gave a concentration for half-maximal inhibition (IC50) of 0.1 to 100 nM.
Take `CC1c2cn[nH]c2-c2cc(O)c(O)cc2N1S(=O)(=O)c1ccc(Cl)cc1` (centres unmarked) [5-(4-chlorophenylsulfonyl)-4-methyl-4,5-dihydro-1H-pyrazolo[4,3-c]quinoline-7,8-diol]: the IC50 lay within 0.1 to 100 nM.
Regarding `O=S(=O)(c1ccc(Cl)cc1)N1Cc2c[nH]nc2-c2cc(Cl)ccc21` [8-chloro-5-[(4-chlorophenyl)sulfonyl]-4,5-dihydro-2H-pyrazolo[4,3-c]quinoline], the IC50 lay within 501 to 1000 nM.
`O=c1c2cn[nH]c2c2ccccc2n1S(=O)(=O)c1ccc(Cl)cc1` [5-[(4-chlorophenyl)sulfonyl]-1,5-dihydro-4H-pyrazolo[4,3-c]quinolin-4-one]: the half-maximal inhibitory concentration (IC50) is 101 to 500 nM.
Molecule `CC1c2c[nH]nc2-c2cc(F)c(F)cc2N1S(=O)(=O)c1cccs1` (centres unmarked) [7,8-difluoro-4-methyl-5-(thiophen-2-ylsulfonyl)-4,5-dihydro-2H-pyrazolo[4,3-c]quinoline] showed an IC50 of 0.1 to 100 nM.
With `CC1c2cn[nH]c2-c2cc(F)c(F)cc2N1S(=O)(=O)c1ccc(Cl)s1` (centres unmarked) [5-(5-chlorothiophen-2-ylsulfonyl)-7,8-difluoro-4-methyl-4,5-dihydro-1H-pyrazolo[4,3-c]quinoline], the 50% inhibitory concentration (IC50) is 0.1 to 100 nM.
The molecule `O=S(=O)(c1ccc(Cl)cc1)N1Cc2cn[nH]c2-n2ccnc21` [5-(4-chlorophenylsulfonyl)-4,5-dihydro-1H-imidazo[1,2-a]pyrazolo[4,3-e]pyrimidine] displayed an IC50 of 101 to 500 nM.
Molecule `O=S(=O)(c1ccc(F)cc1)N1c2cc(F)c(F)cc2-c2n[nH]cc2C1C1CC1` (centres unmarked) [4-cyclopropyl-7,8-difluoro-5-(4-fluorophenylsulfonyl)-4,5-dihydro-2H-pyrazolo[4,3-c]quinoline] yielded an IC50 of 0.1 to 100 nM.
Molecule `O=S(=O)(c1ccc(Cl)cc1)N1c2ccccc2-c2n[nH]cc2C1C1CC1` (centres unmarked) [5-(4-chlorophenylsulfonyl)-4-cyclopropyl-4,5-dihydro-2H-pyrazolo[4,3-c]quinoline] displayed an IC50 of 0.1 to 100 nM.
`O=S(=O)(c1ccc(C(F)(F)F)cc1)N1Cc2c[nH]nc2-c2cc(F)c(F)cc21` [7,8-difluoro-5-(4-(trifluoromethyl)phenylsulfonyl)-4,5-dihydro-2H-pyrazolo[4,3-c]quinoline] gave an IC50 of 0.1 to 100 nM.
Same read-out and setting: with `O=S(=O)(c1ccc(Cl)cn1)N1c2cc(F)c(F)cc2-c2[nH]ncc2C1C1CC1` (centres unmarked) [5-(5-chloropyridin-2-ylsulfonyl)-4-cyclopropyl-7,8-difluoro-4,5-dihydro-1H-pyrazolo[4,3-c]quinoline] the figure was 0.1 to 100 nM; with `O=S(=O)(c1ccc(OC(F)(F)F)cc1)N1c2ccc(F)cc2-c2[nH]ncc2[C@H]1C1CC1` [(R)-4-cyclopropyl-8-fluoro-5-(4-(trifluoromethoxy)phenylsulfonyl)-4,5-dihydro-1H-pyrazolo[4,3-c]quinoline], 0.1 to 100 nM.
`CC1c2c[nH]nc2-c2cc(F)ccc2N1S(=O)(=O)c1ccc(Cl)cc1` (single isomer, unassigned) [5-[(4-chlorophenyl)sulfonyl]-8-fluoro-4-methyl-4,5-dihydro-2H-pyrazolo[4,3-c]quinoline] returned an IC50 of 0.1 to 100 nM.
In turn, `O=S(=O)(c1ccc(C(F)(F)F)nc1)N1c2cc(C(F)(F)F)ccc2-c2[nH]ncc2[C@H]1C1CC1` [(R)-4-cyclopropyl-7-(trifluoromethyl)-5-(6-(trifluoromethyl)pyridin-3-ylsulfonyl-4,5-dihydro-1H-pyrazolo[4,3-c]quinoline] yielded an IC50 of 0.1 to 100 nM.
`O=S(=O)(c1ccc(F)cc1)N1c2ncccc2-c2n[nH]cc2C1C(F)(F)F` (centres unmarked) [5-(4-fluorophenylsulfonyl)-4-(trifluoromethyl)-4,5-dihydro-2H-pyrazolo[4,3-c][1,8]naphthyridine] displayed an IC50 of 0.1 to 100 nM.
Molecule `Cc1nc2c(s1)N(S(=O)(=O)c1ccc(C(F)(F)F)cc1)C(C1CC1)c1c[nH]nc1-2` (centres unmarked) [4-cyclopropyl-7-methyl-5-(4-(trifluoromethyl)phenylsulfonyl)-4,5-dihydro-1H-pyrazolo[3,4-d]thiazolo[5,4-b]pyridine] displayed an IC50 of 0.1 to 100 nM.
`CC1c2c[nH]nc2-c2cc(F)ccc2N1S(=O)(=O)c1cnn(C)c1` (centres unmarked) [8-fluoro-4-methyl-5-(1-methyl-1H-pyrazol-4-ylsulfonyl)-4,5-dihydro-1H-pyrazolo[4,3-c]quinoline] yielded an IC50 of 101 to 500 nM.
Still for that read-out and setting: with `O=S(=O)(c1ccc(C(F)(F)F)nc1)N1c2ccccc2-c2[nH]ncc2C1C1CC1` (centres unmarked) [4-cyclopropyl-5-(6-(trifluoromethyl)pyridin-3-ylsulfonyl)-4,5-dihydro-1H-pyrazolo[4,3-c]quinoline] the figure was 0.1 to 100 nM.

Staying with this experiment, now noted: cleavage of MBP-C125 Swe substrate at the Aβ40 site; partially purified extract of IMR-32 cell membranes; ELISA; enantiomer A.
For the molecule `CC1c2c[nH]nc2-c2ccccc2N1S(=O)(=O)c1ccccn1` (single isomer, unassigned) [4-methyl-5-(pyridin-2-ylsulfonyl)-4,5-dihydro-1H-pyrazolo[4,3-c]quinoline], the IC50 was in the range of 101 to 500 nM.
The molecule `O=S(=O)(c1ccc(C(F)(F)F)cn1)N1c2ccc(F)cc2-c2[nH]ncc2C1C1CC1` (single isomer, unassigned) [4-cyclopropyl-8-fluoro-5-(5-(trifluoromethyl)pyridin-2-ylsulfonyl)-4,5-dihydro-1H-pyrazolo[4,3-c]quinoline] showed an IC50 of 101 to 500 nM.
Same read-out and setting: with `CC1c2cn[nH]c2-c2cc(F)c(F)cc2N1S(=O)(=O)c1ccc(C(F)(F)F)cc1` (single isomer, unassigned) [7,8-difluoro-4-methyl-5-(4-(trifluoromethyl)phenylsulfonyl)-4,5-dihydro-1H-pyrazolo[4,3-c]quinoline] the figure was 0.1 to 100 nM; with `O=S(=O)(c1ccc(C(F)(F)F)nc1)N1c2cc(F)c(F)cc2-c2[nH]ncc2C1C1CC1` (single isomer, unassigned) [4-cyclopropyl-7,8-difluoro-5-(6-(trifluoromethyl)pyridin-3-ylsulfonyl)-4,5-dihydro-1H-pyrazolo[4,3-c]quinoline], 0.1 to 100 nM.
On to `O=S(=O)(c1ccc(C(F)(F)F)cc1)N1c2ccc(F)cc2-c2[nH]ncc2C1C1CC1` (single isomer, unassigned) [4-cyclopropyl-8-fluoro-5-(4-(trifluoromethyl)phenylsulfonyl)-4,5-dihydro-1H-pyrazolo[4,3-c]quinoline], for which the IC50 lay within 0.1 to 100 nM.

Staying with this experiment, now noted: cleavage of MBP-C125 Swe substrate at the Aβ40 site; partially purified extract of IMR-32 cell membranes; ELISA; enantiomer B.
`CC1c2c[nH]nc2-c2ccccc2N1S(=O)(=O)c1ccccn1` (single isomer, unassigned) [4-methyl-5-(pyridin-2-ylsulfonyl)-4,5-dihydro-1H-pyrazolo[4,3-c]quinoline]: the IC50 is 1000 to 10000 nM.
Same read-out and setting: with `O=S(=O)(c1ccc(C(F)(F)F)cn1)N1c2ccc(F)cc2-c2[nH]ncc2C1C1CC1` (single isomer, unassigned) [4-cyclopropyl-8-fluoro-5-(5-(trifluoromethyl)pyridin-2-ylsulfonyl)-4,5-dihydro-1H-pyrazolo[4,3-c]quinoline] the figure was 0.1 to 100 nM; with `CC1c2cn[nH]c2-c2cc(F)c(F)cc2N1S(=O)(=O)c1ccc(C(F)(F)F)cc1` (single isomer, unassigned) [7,8-difluoro-4-methyl-5-(4-(trifluoromethyl)phenylsulfonyl)-4,5-dihydro-1H-pyrazolo[4,3-c]quinoline], 101 to 500 nM.
The molecule `O=S(=O)(c1ccc(C(F)(F)F)nc1)N1c2cc(F)c(F)cc2-c2[nH]ncc2C1C1CC1` (single isomer, unassigned) [4-cyclopropyl-7,8-difluoro-5-(6-(trifluoromethyl)pyridin-3-ylsulfonyl)-4,5-dihydro-1H-pyrazolo[4,3-c]quinoline] returned a 50% inhibitory concentration (IC50) of 0.1 to 100 nM.
Take `O=S(=O)(c1ccc(C(F)(F)F)cc1)N1c2ccc(F)cc2-c2[nH]ncc2C1C1CC1` (single isomer, unassigned) [4-cyclopropyl-8-fluoro-5-(4-(trifluoromethyl)phenylsulfonyl)-4,5-dihydro-1H-pyrazolo[4,3-c]quinoline]: the IC50 was 101 to 500 nM.
